Experiment [1] deals with Staphlococcus aureus strain Smith. Briefly: MIC by serial twofold broth dilution in Mueller Hinton broth without and with 4 mmolar CaCl2. It counts as cell-based, Staphylococcus aureus. Particulars: for MIC vs. S. aureus w Ca++ / MIC vs. S. aureus wo Ca++: S. aureus strain Smith; for MIC vs. S. aureus w Ca++: Mueller Hinton broth with 4 mmolar CaCl2; for MIC vs. S. aureus wo Ca++: Mueller Hinton broth without CaCl2. (In general: Broth dilution looks for growth in wells or tubes with falling amounts of substance.)

Experiment [2] concerns gram positive bacteria including methicillin-resistant Staphylococcus aureus (MRSA) and vancomycin-resistant enterococci (VRE). Particulars: including MRSA and VRE strains; cited from earlier work.

Numbered stars: 1 amine (or outer) side, 2 acyl side, 3 side chain; on linkers, the order of the positions; unused ones are H or OH. Bridge positions count the residues as written; N and C are the ends. Square brackets hold non-standard residues; d marks the D form. Peptide text beside a SMILES is read from it. * marks the point of attachment. X1 = CC(CC(=O)O)C(N[*:1])C(=O)[*:2]; Kyn = Nc1ccccc1C(=O)C[CH](N)C(=O)O; NH(CH2)11CH3 = CCCCCCCCCCCCN*; Orn = NCCC[CH](N)C(=O)O; CO = O=C([*:1])[*:2]

With `CCCCCCCCCCCCNC(=O)NC(CC(=O)O)C(=O)NC1C(=O)NCC(=O)NC(CCCN)C(=O)NC(CC(=O)O)C(=O)NC(C)C(=O)NC(CC(=O)O)C(=O)NCC(=O)NC(CO)C(=O)NC(C(C)CC(=O)O)C(=O)NC(CC(=O)c2ccccc2N)C(=O)OC1C` (centres unmarked) [Compound 1, N-Dodecylcarbamoyl-cyclodepsipeptide-1] ({NH(CH2)11CH3-CO}-DTG[Orn]DADGS[X1][Kyn]; ester 2-C; configuration not given here), in experiment [1], the “MIC vs. S. aureus w Ca++” value worked out at 10.0 and the “MIC vs. S. aureus wo Ca++” value was over 20. The “Antibacterial activity (in words)” value in experiment [1] (carbamoyl-linked compounds, Table 2) was “good antibacterial activity”.
As for `CCCCCCCCCC(=O)NC(Cc1cccc2ccccc12)C(=O)NC(CC(N)=O)C(=O)NC(CC(=O)O)C(=O)NC1C(=O)NCC(=O)NC(CCCN)C(=O)NC(CC(=O)O)C(=O)NC(C)C(=O)NC(CC(=O)O)C(=O)NCC(=O)NC(CO)C(=O)NC(C(C)CC(=O)O)C(=O)NC(CC(=O)c2ccccc2N)C(=O)OC1C` [Compound 11, N-Decanoyl-L-β-(1-naphthyl)alanyl-cyclodepsipeptide-2], in experiment [1], the “MIC vs. S. aureus w Ca++” value turned out to be 0.16 and the “MIC vs. S. aureus wo Ca++” value came out at 2.5.
On to “CH3(CH2)8CO-Asn-Asp-cdpeptide [Compound 4]”, for which, in experiment [1], the “MIC vs. S. aureus w Ca++” value was over 10 and the “MIC vs. S. aureus wo Ca++” value is recorded as over 20.
Turning to “CH3(CH2)8CO-D-Harm-Asn-Asp-cdpeptide [Compound 14]”, in experiment [1], the “MIC vs. S. aureus w Ca++” value is listed as over 10 and the “MIC vs. S. aureus wo Ca++” value is reported as over 10.
In the case of “CH3(CH2)8CO-L-Harm-Asn-Asp-cdpeptide [Compound 13]”, in experiment [1], the “MIC vs. S. aureus w Ca++” value worked out at 5.0 and the “MIC vs. S. aureus wo Ca++” value is over 10.
As to “CH3(CH2)8CO-Trp-Asn-Asp-cdpeptide [daptomycin, reference compound]”, in experiment [1], the “MIC vs. S. aureus w Ca++” value came to 0.16 and the “MIC vs. S. aureus wo Ca++” value worked out at 2.5. Further, in experiment [2], the “Activity against gram positive bacteria (in words)” value is given as “excellent activity”.
Regarding “CH3(CH2)8CO-Trp-Asn-Asp-tBOC-cdpeptide [tBOC daptomycin, reference compound]”, in experiment [1], the “MIC vs. S. aureus w Ca++” value is listed as 0.6 and the “MIC vs. S. aureus wo Ca++” value is over 2.5.
Consider “CH3(CH2)9SO2-L-Phe-Asn-Asp-FMOC-cdpeptide [Compound 8]”, for which, in experiment [1], the “MIC vs. S. aureus w Ca++” value is on record as 5.0 and the “MIC vs. S. aureus wo Ca++” value is over 20.
Turning to “CH3(CH2)11NHCO-Asn-Asp-FMOC-cdpeptide [Compound 2]”, in experiment [1], the “MIC vs. S. aureus w Ca++” value turned out to be 5.0 and the “MIC vs. S. aureus wo Ca++” value is over 20.

The values are drawn from patent US6767718B2, “Lipodepsipeptide antibiotics and methods of preparation” (BioSource Pharm, Inc., priority 2002, dated 2004).
